Results from ChEMBL document CHEMBL1201862, “PubChem BioAssay data set” (2004).
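Values below derive from 48-hour exposures of cells grown in 96-well plates, with endpoints linearly interpolated between the two concentrations bracketing the appropriate inhibition level. GI50 = concentration required for 50% inhibition of growth.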 Active and inactive are the calls of the source. Rule as the data show it: active = GI50 up to about 1.1 µM and inactive = higher.

Key:
Test in all cases: growth of human tumour cells (NCI), 48 h
SR = test system: SR
IGROV-1 = test system: IGROV-1
OVCAR-8 = test system: OVCAR-8
A549 = test system: A549
BT-549 = test system: BT-549
RPMI-8226 = test system: RPMI-8226
PC-3 = test system: PC-3
SK-OV-3 = test system: SK-OV-3
SK-MEL-2 = test system: SK-MEL-2
UACC-62 = test system: UACC-62
U-251 = test system: U-251
NCI/ADR-RES = test system: NCI/ADR-RES
UACC-257 = test system: UACC-257
Hs-578T = test system: Hs-578T
OVCAR-4 = test system: OVCAR-4
MDA-N = test system: MDA-N
SF-295 = test system: SF-295
EKVX = test system: EKVX
MCF7 = test system: MCF7
MOLT-4 = test system: MOLT-4

Measured: GI50

Nc1nc(O)c2nc3c(nc2n1)C(=O)N(c1ccc(C(=O)O)cc1)C3
inactive: SR > 100 µM | IGROV-1 > 100 µM | OVCAR-8 > 100 µM | A549 > 100 µM | BT-549 > 100 µM | RPMI-8226 > 100 µM | PC-3 > 100 µM | SK-OV-3 > 100 µM | SK-MEL-2 > 100 µM | UACC-62 > 100 µM | U-251 > 100 µM | NCI/ADR-RES > 100 µM | UACC-257 > 100 µM | Hs-578T > 100 µM | OVCAR-4 > 100 µM | MDA-N > 100 µM | SF-295 > 100 µM | EKVX > 100 µM | MCF7 > 100 µM

C[Si](C)(C)OC1c2[nH]c3ccccc3c2CN2C(=O)CCC12 (configuration not stated)
inactive: SR > 100 µM | IGROV-1 > 100 µM | OVCAR-8 > 100 µM | A549 > 100 µM | BT-549 > 100 µM | RPMI-8226 > 100 µM | PC-3 > 100 µM | SK-OV-3 > 100 µM | SK-MEL-2 > 100 µM | UACC-62 > 100 µM | U-251 > 100 µM | NCI/ADR-RES > 100 µM | UACC-257 > 100 µM | Hs-578T > 100 µM | OVCAR-4 > 100 µM | MDA-N > 100 µM | EKVX > 100 µM | MOLT-4 > 100 µM | MCF7 > 100 µM

CC(=O)Nc1cc([As](=O)(O)O)ccc1O [ACETARSONE]
inactive: SR > 100 µM | IGROV-1 > 100 µM | OVCAR-8 > 100 µM | A549 > 100 µM | BT-549 > 100 µM | RPMI-8226 > 100 µM | PC-3 > 100 µM | SK-OV-3 > 100 µM | SK-MEL-2 > 100 µM | UACC-62 > 100 µM | U-251 > 100 µM | NCI/ADR-RES > 100 µM | UACC-257 > 100 µM | Hs-578T > 100 µM | OVCAR-4 > 100 µM | MDA-N > 100 µM | SF-295 > 100 µM | EKVX > 100 µM | MOLT-4 > 100 µM | MCF7 > 100 µM

CCc1cccc(C(C)(C)C)c1NC(=S)N/C=C(/C#N)C(N)=O
inactive: SR > 10 µM | IGROV-1 > 100 µM | OVCAR-8 > 100 µM | A549 > 100 µM | BT-549 44.8 µM | RPMI-8226 > 100 µM | PC-3 > 100 µM | SK-OV-3 > 100 µM | SK-MEL-2 > 100 µM | UACC-62 > 100 µM | U-251 > 100 µM | NCI/ADR-RES > 100 µM | UACC-257 > 100 µM | Hs-578T 83 µM | OVCAR-4 > 100 µM | MDA-N > 100 µM | SF-295 > 100 µM | EKVX > 100 µM | MOLT-4 > 100 µM | MCF7 > 100 µM

CC(=O)c1c2c(c3ccccc3c1O)O[C@@H]1OCC[C@H]21
inactive: SR > 100 µM | IGROV-1 > 100 µM | OVCAR-8 > 100 µM | A549 > 100 µM | BT-549 48.4 µM | RPMI-8226 94.6 µM | PC-3 > 100 µM | SK-OV-3 > 100 µM | SK-MEL-2 > 100 µM | UACC-62 > 100 µM | U-251 > 100 µM | NCI/ADR-RES > 100 µM | UACC-257 > 100 µM | Hs-578T > 100 µM | OVCAR-4 53.3 µM | MDA-N > 100 µM | SF-295 > 100 µM | EKVX > 100 µM | MOLT-4 > 100 µM | MCF7 30 µM

CC1OC(OC2C(O)COC(OC3C(C)OC(OC4C(OC(=O)[C@]56CCC(C)(C)C[C@@H]5C5=CCC7[C@@]8(C)C[C@H](O)[C@H](OC9OC(CO)C(O)C(O)C9O)[C@@](C)(CO)[C@@H]8CC[C@@]7(C)[C@]5(C)CC6)OCC(O)C4O)C(O)C3OC3OCC(O)C(O)C3O)C2O)C(O)C(O)C1O (some centres not stated)
inactive: SR 17.9 µM | OVCAR-8 19.5 µM | A549 14 µM | BT-549 31.9 µM | RPMI-8226 39 µM | PC-3 14 µM | SK-OV-3 18.6 µM | SK-MEL-2 21.4 µM | UACC-62 22.3 µM | U-251 20 µM | NCI/ADR-RES 26.2 µM | UACC-257 14.9 µM | Hs-578T 40.9 µM | OVCAR-4 20.1 µM | MDA-N 18.8 µM | SF-295 20.7 µM | EKVX 10.7 µM | MOLT-4 20.1 µM | MCF7 19.8 µM

CCOC(=O)c1cc(-c2ccc(OC)c(OC)c2)c[nH]1
inactive: SR > 10 µM | IGROV-1 > 10 µM | OVCAR-8 > 10 µM | A549 > 10 µM | BT-549 > 10 µM | RPMI-8226 > 10 µM | PC-3 > 10 µM | SK-OV-3 > 10 µM | SK-MEL-2 > 10 µM | UACC-62 > 10 µM | U-251 > 10 µM | NCI/ADR-RES > 10 µM | UACC-257 > 10 µM | Hs-578T > 10 µM | OVCAR-4 > 10 µM | MDA-N > 10 µM | SF-295 > 10 µM | EKVX > 10 µM | MOLT-4 > 10 µM | MCF7 > 10 µM
